How the values were obtained:
[1] = system: Escherichia coli ATCC 25922; assay: Minimum inhibitory concentration (MIC), CLSI broth micro-dilution, E. coli; type: cell-based; details: Escherichia coli, ATCC25922, 22 h, Table 6, cation adjusted Mueller Hinton Broth + 0.002% Tween-80, 35° C.
Procedure, shortened: (§1)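 Colonies grown 20 h at 35° C on Trypticase Soy agar (MRSA) or Luria agar (E. coli) were suspended in cation-adjusted Mueller Hinton broth with 0.002% Tween-80. Suspensions were added at OD600 0.0005 to 10-point twofold compound dilutions, then incubated 22 h at 35° C.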

[2] = system: Methicillin Resistant Staphylococcus aureus strain USA 200; assay: Minimum inhibitory concentration (MIC), CLSI broth micro-dilution, S. aureus; type: cell-based; details: Staphylococcus aureus, MRSA / USA200; Table 6; MRSA USA 200; cation adjusted Mueller Hinton Broth + 0.002% Tween-80; 35° C., 22 hours
Procedure, shortened: as §1

SMILES | MIC [1] [µM] | MIC [2] [µM]
CCCCCCCc1ccc(-c2ncc(C(=O)N[C@@H](CCN)C(=O)N(C)[C@@H]3C(=O)N[C@@H](C)C(=O)N[C@H](C(=O)NCC#N)Cc4ccc(OCCN)c(c4)-c4cc3ccc4OCCN)c(C)n2)cc1 (racemic) [Compound 240, rac-(8S,11S,14S)-3,18-bis(2-aminoethoxy)-N-(cyanomethyl)-11-methyl-14-[methyl-[rac-(2S)-4-amino-2-[[2-(4-heptylphenyl)-4-methyl-pyrimidine-5-carbonyl]amino]butanoyl]amino]-10,13-dioxo-9,12-diazatricyclo[13.3.1.12,6]icosa-1(18),2(20),3,5,15(19),16-hexaene-8-carboxamide] | 0.13 | 0.012
CCCCOc1ccc(-c2ncc(C(=O)N[C@@H](CCN)C(=O)N(C)[C@@H]3C(=O)N[C@@H](C)C(=O)N[C@H](C(=O)NCC#N)Cc4ccc(OCCN)c(c4)-c4cc3ccc4OCCN)c(C)n2)c(C)c1 (racemic) [Compound 242, rac-(8S,11S,14S)-3,18-bis(2-aminoethoxy)-N-(cyanomethyl)-11-methyl-14-[methyl-[rac-(2S)-4-amino-2-[[2-(4-butoxy-2-methyl-phenyl)-4-methyl-pyrimidine-5-carbonyl]amino]butanoyl]amino]-10,13-dioxo-9,12-diazatricyclo[13.3.1.12,6]icosa-1(18),2(20),3,5,15(19),16-hexaene-8-carboxamide] | 0.39 | 0.016
CCCCOc1c(C)cc(-c2ncc(C(=O)N[C@@H](CCN)C(=O)N(C)[C@@H]3C(=O)N[C@@H](C)C(=O)N[C@H](C(=O)NCC#N)Cc4ccc(OCCN)c(c4)-c4cc3ccc4OCCN)c(C)n2)cc1C (racemic) [Compound 243, rac-(8S,11S,14S)-3,18-bis(2-aminoethoxy)-N-(cyanomethyl)-11-methyl-14-[methyl-[rac-(2S)-4-amino-2-[[2-(4-butoxy-3,5-dimethyl-phenyl)-4-methyl-pyrimidine-5-carbonyl]amino]butanoyl]amino]-10,13-dioxo-9,12-diazatricyclo[13.3.1.12,6]icosa-1(18),2(20),3,5,15(19),16-hexaene-8-carboxamide] | 0.13 | 0.008
Cc1nc(-c2ccc(OC(C)C)cc2)ncc1C(=O)N[C@@H](CCN)C(=O)N(C)[C@@H]1C(=O)N[C@@H](C)C(=O)N[C@H](C(=O)NCC#N)Cc2ccc(OCCN)c(c2)-c2cc1ccc2OCCN (racemic) [Compound 246, rac-(8S,11S,14S)-3,18-bis(2-aminoethoxy)-N-(cyanomethyl)-11-methyl-14-[methyl-[rac-(2S)-4-amino-2-[[2-(4-isopropoxyphenyl)-4-methyl-pyrimidine-5-carbonyl]amino]butanoyl]amino]-10,13-dioxo-9,12-diazatricyclo[13.3.1.12,6]icosa-1(18),2(20),3,5,15(19),16-hexaene-8-carboxamide] | 0.4 | 0.067
CCCCOc1ccc(-c2ncc(C(=O)N[C@@H](CCN)C(=O)N(C)[C@@H]3C(=O)N[C@@H](C)C(=O)N[C@H](C(=O)NCC#N)Cc4ccc(OCCN)c(c4)-c4cc3ccc4OCCN)c(C)n2)cc1Cl (racemic) [Compound 247, rac-(8S,11S,14S)-3,18-bis(2-aminoethoxy)-N-(cyanomethyl)-11-methyl-14-[methyl-[rac-(2S)-4-amino-2-[[2-(4-butoxy-3-chloro-phenyl)-4-methyl-pyrimidine-5-carbonyl]amino]butanoyl]amino]-10,13-dioxo-9,12-diazatricyclo[13.3.1.12,6]icosa-1(18),2(20),3,5,15(19),16-hexaene-8-carboxamide] | 0.19 | 0.016
CCCCCCOc1ccc(-c2ncc(C(=O)N[C@@H](CCN)C(=O)N(C)[C@@H]3C(=O)N[C@@H](C)C(=O)N[C@H](C(=O)NCC#N)Cc4ccc(OCCN)c(c4)-c4cc3ccc4OCCN)c(C)n2)cc1 (racemic) [Compound 248, rac-(8S,11S,14S)-3,18-bis(2-aminoethoxy)-N-(cyanomethyl)-11-methyl-14-[methyl-[rac-(2S)-4-amino-2-[[2-(4-hexoxyphenyl)-4-methyl-pyrimidine-5-carbonyl]amino]butanoyl]amino]-10,13-dioxo-9,12-diazatricyclo[13.3.1.12,6]icosa-1(18),2(20),3,5,15(19),16-hexaene-8-carboxamide] | 0.13 | 0.016
Cc1nc(-c2ccc3c(c2)CCC(C)(C)O3)ncc1C(=O)N[C@@H](CCN)C(=O)N(C)[C@@H]1C(=O)N[C@@H](C)C(=O)N[C@H](C(=O)NCC#N)Cc2ccc(OCCN)c(c2)-c2cc1ccc2OCCN (racemic) [Compound 249, rac-(8S,11S,14S)-3,18-bis(2-aminoethoxy)-N-(cyanomethyl)-11-methyl-14-[methyl-[rac-(2S)-4-amino-2-[[2-(2,2-dimethylchroman-6-yl)-4-methyl-pyrimidine-5-carbonyl]amino]butanoyl]amino]-10,13-dioxo-9,12-diazatricyclo[13.3.1.12,6]icosa-1(18),2(20),3,5,15(19),16-hexaene-8-carboxamide] | 0.35 | 0.043
Cc1nc(-c2ccc(OC(C)(C)C)cc2)ncc1C(=O)N[C@@H](CCN)C(=O)N(C)[C@@H]1C(=O)N[C@@H](C)C(=O)N[C@H](C(=O)NCC#N)Cc2ccc(OCCN)c(c2)-c2cc1ccc2OCCN (racemic) [Compound 250, rac-(8S,11S,14S)-3,18-bis(2-aminoethoxy)-N-(cyanomethyl)-11-methyl-14-[methyl-[rac-(2S)-4-amino-2-[[2-(4-tert-butoxyphenyl)-4-methyl-pyrimidine-5-carbonyl]amino]butanoyl]amino]-10,13-dioxo-9,12-diazatricyclo[13.3.1.12,6]icosa-1(18),2(20),3,5,15(19),16-hexaene-8-carboxamide] | 0.35 | 0.066
Cc1nc(-c2cccc(OC(C)C)c2)ncc1C(=O)N[C@@H](CCN)C(=O)N(C)[C@@H]1C(=O)N[C@@H](C)C(=O)N[C@H](C(=O)NCC#N)Cc2ccc(OCCN)c(c2)-c2cc1ccc2OCCN (racemic) [Compound 251, rac-(8S,11S,14S)-3,18-bis(2-aminoethoxy)-N-(cyanomethyl)-11-methyl-14-[methyl-[rac-(2S)-4-amino-2-[[2-(3-isopropoxyphenyl)-4-methyl-pyrimidine-5-carbonyl]amino]butanoyl]amino]-10,13-dioxo-9,12-diazatricyclo[13.3.1.12,6]icosa-1(18),2(20),3,5,15(19),16-hexaene-8-carboxamide] | 1.1 | 0.067
Cc1nc(-c2ccc(C(C)(C)C)cc2)nc(C)c1C(=O)N[C@@H](CCN)C(=O)N(C)[C@@H]1C(=O)N[C@@H](C)C(=O)N[C@H](C(=O)NCC#N)Cc2ccc(OCCN)c(c2)-c2cc1ccc2OCCN (racemic) [Compound 253, rac-(8S,11S,14S)-3,18-bis(2-aminoethoxy)-N-(cyanomethyl)-11-methyl-14-[methyl-[rac-(2S)-4-amino-2-[[2-(4-tert-butylphenyl)-4,6-dimethyl-pyrimidine-5-carbonyl]amino]butanoyl]amino]-10,13-dioxo-9,12-diazatricyclo[13.3.1.12,6]icosa-1(18),2(20),3,5,15(19),16-hexaene-8-carboxamide] | 0.14 | 0.012
Cc1nc(-c2ccc(C(C)(C)C)cc2)nc(C)c1C(=O)N[C@@H](CCN)C(=O)N(C)[C@@H]1C(=O)N[C@@H](C)C(=O)N[C@H](C(=O)NCC#N)Cc2ccc(O)c(c2)-c2cc1ccc2OCCN (racemic) [Compound 254, rac-(8S,11S,14S)-18-(2-aminoethoxy)-N-(cyanomethyl)-3-hydroxy-11-methyl-14-[methyl-[rac-(2S)-4-amino-2-[[2-(4-tert-butylphenyl)-4,6-dimethyl-pyrimidine-5-carbonyl]amino]butanoyl]amino]-10,13-dioxo-9,12-diazatricyclo[13.3.1.12,6]icosa-1(18),2(20),3,5,15(19),16-hexaene-8-carboxamide] | 0.24 | 0.061
CCCCc1ccc(-c2nc(C)c(C(=O)N[C@@H](CCN)C(=O)N(C)[C@@H]3C(=O)N[C@@H](C)C(=O)N[C@H](C(=O)NCC#N)Cc4ccc(OCCN)c(c4)-c4cc3ccc4OCCN)c(C)n2)cc1 (racemic) [Compound 255, rac-(8S,11S,14S)-3,18-bis(2-aminoethoxy)-N-(cyanomethyl)-11-methyl-14-[methyl-[rac-(2S)-4-amino-2-[[2-(4-butylphenyl)-4,6-dimethyl-pyrimidine-5-carbonyl]amino]butanoyl]amino]-10,13-dioxo-9,12-diazatricyclo[13.3.1.12,6]icosa-1(18),2(20),3,5,15(19),16-hexaene-8-carboxamide] | 0.066 | 0.0082
Cc1nc(-c2ccc(CC(C)C)cc2)nc(C)c1C(=O)N[C@@H](CCN)C(=O)N(C)[C@@H]1C(=O)N[C@@H](C)C(=O)N[C@H](C(=O)NCC#N)Cc2ccc(OCCN)c(c2)-c2cc1ccc2OCCN (racemic) [Compound 258, rac-(8S,11S,14S)-3,18-bis(2-aminoethoxy)-N-(cyanomethyl)-11-methyl-14-[methyl-[rac-(2S)-4-amino-2-[[2-(4-isobutylphenyl)-4,6-dimethyl-pyrimidine-5-carbonyl]amino]butanoyl]amino]-10,13-dioxo-9,12-diazatricyclo[13.3.1.12,6]icosa-1(18),2(20),3,5,15(19),16-hexaene-8-carboxamide] | 0.13 | 0.012

Reference: patent US20260274892A1, “MACROCYCLIC BROAD SPECTRUM ANTIBIOTICS” (RQx Pharmaceuticals, Inc., priority 2017, published 2026)
